Data reported in patent publication US9018438B2, “Screening method for anticancer drugs” (Kyoto University, priority 2010, dated 2015).
Structures can show the parent of a compound that is named as a salt. Where two headings read alike, the source gives them in different places.

Columns and labels:
endogenous RECK = test: Endogenous RECK mRNA (RT-PCR) and protein (immunoblotting) expression in RM72 cells; format: cell-based, human; conditions: 48 hours, Lyc 1.3 μM, Hr 11 μM
Source text: Relative band intensities were obtained by normalization against HPRT1 for the mRNA and against GAPDH for the protein and subsequent division by the normalized value for the cells treated with the vehicle.

RM72 cells [1] = format: in vivo; conditions: for Lung metastasis Mean: relative lung metastasis; for Lung metastasis Mean / Tumor Mean: vehicle = 100; for Tumor Mean: relative tumor size; for anticancer activity / cancer metastasis suppressing activity: summary statement
Protocol: RM72 cells (3×10^6 cells) suspended in 0.1 ml of PBS were subcutaneously injected into the right posterior flank of Balb/c nude mice (6 weeks old, male, Charles River). […]. After 14-day treatment, the mice were anesthetized and their bioluminescence was recorded by the method described below. After the whole-body recording of the bioluminescence, the lung was resected, washed with PBS (−), and subjected to bioluminescence recording. The tumor size (length×width×height) was measured once a week. Statistical significance was assessed by Student's t-test.
Mice under anesthesia were intraperitoneally injected with 75 mg/kg of d-luciferin dissolved in PBS (−). Bioluminescence images were acquired with IVIS ImagingSystem (Xenogen) at 5 minutes after the injection (Wang S, El-Deiry W S. Requirement of p53 targets in chemosensitization of colonic carcinoma to death ligand therapy. Proc Natl Acad Sci USA 2003; 100: 15095-15100; Minn A J, Kang Y, Serganova I, Gupta G P, Giri D D, Doubrovin M, Ponomarev V, Gerald W L, Blasberg R, Massague J. Distinct organ-specific metastatic potential of individual breast cancer cells and primary tumors. J Clin Invest 2005; 115: 44-55). The photons emitted from the whole bodies or the isolated organs were collected for a period of 60 seconds and integrated. The images were analyzed using Living Image software (Xenogen).
The anti-tumorigenic and anti-metastatic activities of Pyt, Hr, Gra and Lyc were investigated with the same protocol as in Example 9. The experiment was conducted in two batches: Experiment 1 for three groups of a Pyt group, a Hr group and a vehicle group and Experiment 2 for three groups of a Gra group, a Lyc group and a vehicle group. The doses of the test compounds were set at two different quantities considered to be appropriate based on literature (see Tables 3 and 4).

Reck gene promoter [2] = test: SEAP assay in YM3 cells (Reck gene promoter-reporter system); format: cell-based, mouse; conditions: for Activity in Dox: in the presence of Dox (HRAS12V-off); for Induction (fold): relative SEAP activity at optimal conc., YM3 cells, regular medium (Ras-ON)
Protocol: A 4.1-kb upstream region of a mouse Reck gene (Gene ID: 53614, Chromosome 4—NC—000070.5 43884251-43888453) was inserted into a pSEAP2-Basic vector (Clontech) to give a pSEAP-RP4.1 plasmid. […] Biochem Biophys Res Commun 1999; 264: 668-675.). […] TF323-C3 cells can be distributed from one of the inventors Makoto Noda.
YM3 cells were seeded onto 96-well plates at 1×10^4 cells in 100 μl per well and incubation was performed for 5 hours to allow the cells to settle. A compound solution (500 μM, 1 μl) was added to the medium. The employed test compounds were those in the chemical library Prestwick Chemical Library (Prestwick Chemical, Illkirch, France), which is composed of 880 structurally diverse known bioactive compounds, dissolved in nano-pure grade dimethyl sulfoxide (DMSO; Wako). […] A vehicle (DMSO, 1 μl) alone as a negative control and hypothemycin (HPM, 1 mg/ml) as a positive control were added to two wells per plate. Each sample was tested on two different plates (duplicate samples).
After incubation for 48 hours, a portion (10 μl) of the culture supernatant was sampled, incubated at 65° C. (heat treatment) for 30 minutes, and then subjected to the SEAP assay using Great EscAPe™ SEAP Chemiluminescence Detection Kit (Takara Bio). The remaining medium and the cells were subjected to the cell-counting assay using SF reagent. That is, SF reagent (Nacalai) (10 μl per well) was added to the medium, the plates were incubated for 3 hours in a CO2 incubator, and the absorbance at 450 nm (A450) was measured to obtain relative cell numbers. For the SEAP activity data, “SEAP measured value/A450 value” was defined as “SEAP activity per cell”, and the value obtained by dividing “SEAP activity per cell” of each compound by “SEAP activity per cell” of the negative control was defined as “relative SEAP activity”. The mean “relative SEAP activity” of the duplicate samples and the standard error thereof were determined. For the cell number data, the value obtained by dividing the SF measured value of each compound by the SF measured value of the negative control was defined as “relative cell number”, and the mean value of the duplicate samples and the standard error thereof were determined. Samples with a large standard error were tested again. In the experiment, duplicate samples were prepared each in a regular liquid medium and in a liquid medium containing Dox (2 μg/ml), and four mean values (the relative cell number and the relative SEAP activity in the Ras-ON state and the relative cell number and the relative SEAP activity in the Ras-OFF state) were obtained (see FIG. 3).

RM72 cells [3] = test: IC30 concentration in RM72 cells; format: cell-based, human
pro-MMP-9 = test: Gelatin zymography of RM72 culture supernatant, MMP-9; format: cell-based, human; conditions: RM72 cells; DSF 16 μM, DXR 210 nM, Gra 32 nM, Pyt 5 μM; 48 hours
Protocol: Gelatin zymography with the culture supernatant of RM72 cells treated with DSF, DXR, Gra, Pyt, pDTC, HPM, and DMSO (vehicle) was performed. Specifically, RM72 cells (2×10^4 cells per well) seeded onto 96-well plates were incubated for 24 hours, and the medium was replaced with a medium containing each of the above compounds (DSF: 16 μM, DXR: 210 nM, Gra: 32 nM, Pyt: 5 μM, HPM: 1 μg/ml, pDTC: 20 μM). After incubated for 48 hours, the medium was replaced with 100 μl of DMEM containing 0.1% FBS and incubated for additional 12 hours. The culture supernatant was harvested, cleared of a solid matter by centrifugation, and analyzed by gelatin zymography in accordance with the method described in literature (Takahashi C, Sheng Z, Horan. T P, Kitayama H, Maki M, Hitomi K, Kitaura Y, Takai S, Sasahara R M, Horimoto A, Ikawa Y, Ratzkin B J, Arakawa T, Noda M. Regulation of matrix metalloproteinase-9 and inhibition of tumor invasion by the membrane-anchored glycoprotein RECK. Proc Natl Acad Sci USA 1998; 95: 13221-13226). The band intensities were normalized against the cell number determined by the SF assay.

Reck gene promoter [4] = test: SEAP assay in YM3 cells (Reck gene promoter-reporter system); format: cell-based, mouse; conditions: determined by dose-response assays (0.0617, 0.185, 0.556, 1.67, 5.00 μM) using YM3 cells

| Compound | expression of RECK mRNA (endogenous RECK) | expression of RECK protein (endogenous RECK) | anti-metastatic activity (RM72 cells [1]; both doses) | anti-tumorigenic activity (RM72 cells [1]; both doses) | anticancer activity (RM72 cells [1]) | cancer metastasis suppressing activity (RM72 cells [1]) | Activity in Dox (Reck gene promoter [2]) | Induction (fold) (Reck gene promoter [2]) | IC30 (RM72 cells [3]) | pro-MMP-9 level in the culture supernatant (pro-MMP-9) | also measured |
| --- | --- | --- | --- | --- | --- | --- | --- | --- | --- | --- | --- |
| COc1ccc2c(c1)[nH]c1c(C)nccc12.Cl [Harmine hydrochloride] | increased the expression | increased the expression | strong | strong | confirmed | confirmed | ± (between 1.9 and 1.5-fold) | 2.44 fold | 11 µM |  | Lung metastasis Mean (RM72 cells [1]; 3 mg/kg/day): 22.0; Lung metastasis Mean (RM72 cells [1]; 10 mg/kg/day): 25.7; Tumor Mean (RM72 cells [1]; 3 mg/kg/day): 56.4; Tumor Mean (RM72 cells [1]; 10 mg/kg/day): 47.2 |
| COc1cccc2c1C(=O)c1c(O)c3c(c(O)c1C2=O)C[C@@](O)(C(=O)CO)C[C@@H]3O[C@H]1C[C@H](N)[C@H](O)[C@H](C)O1 [Doxorubicin hydrochloride] |  |  |  |  |  |  | + (more than 1.9-fold) | 8.55 fold |  | reduced |  |
| Gramicidin |  |  | strong | weak | confirmed | confirmed | + (more than 1.9-fold) | 7.30 fold |  | reduced | Lung metastasis Mean (RM72 cells [1]; 0.03 mg/kg/day): 42.0; Lung metastasis Mean (RM72 cells [1]; 0.1 mg/kg/day): 27.4; Tumor Mean (RM72 cells [1]; 0.03 mg/kg/day): 89.3; Tumor Mean (RM72 cells [1]; 0.1 mg/kg/day): 83.1; Optimal conc. (Reck gene promoter [2]): 5.00 µM |
| Cl.O[C@H]1[C@H]2c3cc4c(cc3CN3CCC(=C[C@@H]1O)[C@H]23)OCO4 [Lycorine hydrochloride] | increased the expression | reduced the expression |  | strong | confirmed | confirmed | + (more than 1.9-fold) | 3.44 fold | 1.3 µM |  | Optimal conc. (Reck gene promoter [4]): 5.00 µM; anti-metastatic activity (RM72 cells [1]; high dose): strong; anti-metastatic activity (RM72 cells [1]; low dose): weak; Lung metastasis Mean (RM72 cells [1]; 2.5 mg/kg/day): 65.5; Lung metastasis Mean (RM72 cells [1]; 7.5 mg/kg/day): 17.7; Tumor Mean (RM72 cells [1]; 2.5 mg/kg/day): 69.7; Tumor Mean (RM72 cells [1]; 7.5 mg/kg/day): 70.9 |
